From patent US7273865B2, “Thiazolopyridine” (Hoffmann-La Roche Inc., priority 2003, dated 2007)

Tests used:
[1] = biological target: T1, human adenosine A2A receptor (Homo sapiens, UniProt P29274); assay: Human adenosine A2A receptor [3H]-SCH-58261 binding assay; settings: for Selectivity: hA2A versus hA1; for Ki: recombinant receptor expressed in CHO cells, [3H]-SCH-58261 1 nM, SPA, read-out: hA2A (converted)
T1 construct: expressed in transfected cells; host or cells: CHO cells, semliki forest virus expression system; membranes used
T1 sequence (P29274 whole entry): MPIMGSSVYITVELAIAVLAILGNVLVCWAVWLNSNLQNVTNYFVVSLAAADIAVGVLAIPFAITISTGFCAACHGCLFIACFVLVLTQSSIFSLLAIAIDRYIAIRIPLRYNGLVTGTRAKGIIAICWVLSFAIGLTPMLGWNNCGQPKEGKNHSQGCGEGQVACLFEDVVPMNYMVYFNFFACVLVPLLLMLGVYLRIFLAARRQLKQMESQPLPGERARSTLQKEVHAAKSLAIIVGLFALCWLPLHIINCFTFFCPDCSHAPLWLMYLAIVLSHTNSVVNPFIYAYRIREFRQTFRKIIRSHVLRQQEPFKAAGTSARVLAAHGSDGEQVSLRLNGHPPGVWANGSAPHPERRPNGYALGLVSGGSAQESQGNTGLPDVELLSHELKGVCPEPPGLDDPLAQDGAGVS
Protocol: (§1) The human adenosine A2A receptor was recombinantly expressed in Chinese hamster ovary (CHO) cells using the semliki forest virus expression system. Cells were harvested, washed twice by centrifugation, homogenized and again washed by centrifugation. The [^3H]-SCH-58261 (Dionisotti et al., 1997, Br J Pharmacol 121, 353; 1 nM) binding assay was carried out in 96-well plates in the presence of (per well) approximately 2.5 μg of membrane protein, 0.5 mg of Ysi-poly-1-lysine SPA beads and 0.1 U adenosine deaminase in a final volume of 200 μl of buffer (containing 50 mM Tris, 120 mM NaCl, 5 mM KCl, 2 mM CaCl2 and 10 mM MgCl2 (pH 7.4)). Non-specific binding was defined using xanthine amine congener (XAC; 2 μM). Compounds were tested at 10 concentrations from 10 μM-0.3 nM. All assays were conducted in duplicate and repeated at least two times. Assay plates were incubated for 1 hour at room temperature before centrifugation and then bound ligand determined using a Packard Topcount scintillation counter. IC50 values were calculated using a non-linear curve fitting program and Ki values calculated using the Cheng-Prussoff equation.

[2] = biological target: T2, human adenosine A1 receptor (Homo sapiens, UniProt P30542); assay: Human adenosine A1 receptor [3H]-DPCPX binding assay; settings: recombinant receptor expressed in CHO cells, [3H]-DPCPX 0.6 nM, SPA; read-out: hA1 (converted)
T2 construct: expressed in transfected cells; host or cells: CHO cells, semliki forest virus expression system; membranes used
T2 sequence (P30542 1-326): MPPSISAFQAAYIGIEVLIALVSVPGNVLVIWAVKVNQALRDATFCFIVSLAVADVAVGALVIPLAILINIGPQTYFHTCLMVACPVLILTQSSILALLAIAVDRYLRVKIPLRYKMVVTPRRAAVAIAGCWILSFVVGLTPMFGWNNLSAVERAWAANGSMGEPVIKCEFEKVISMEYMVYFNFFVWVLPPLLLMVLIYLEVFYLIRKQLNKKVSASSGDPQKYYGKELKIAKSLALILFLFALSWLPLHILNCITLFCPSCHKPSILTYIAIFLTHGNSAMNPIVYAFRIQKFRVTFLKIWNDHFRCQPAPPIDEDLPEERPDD
Protocol: as §1, with “A1” for “A2A”, “[^3H]-DPCPX (([propyl-3H]8-cyclopentyl-1,3-dipropyxanthine); 0.6” for “[^3H]-SCH-58261 (Dionisotti et al., 1997, Br J Pharmacol 121, 353; 1”

Row | Selectivity [1] | Ki [1] [µM] | Ki [2] [µM] | SMILES
1 | 868 | 0.00794 | – | COc1cnc(N2CCOCC2)c2sc(NC(=O)c3ccnc(N4CC(O)C4)c3)nc12 [Example 18, 2-(3-Hydroxy-azetidin-1-yl)-N-(7-methoxy-4-morpholin-4-yl-thiazolo[5,4-c]pyridin-2-yl)-isonicotinamide]
2 | 312 | 0.00537 | 1.66 | COc1cnc(N2CCOCC2)c2sc(NC(=O)c3cccc(F)c3)nc12 [Example 6, 3-Fluoro-N-(7-methoxy-4-morpholin-4-yl-thiazolo[5,4-c]pyridin-2-yl)-benzamide]
3 | 387 | 0.0155 | 5.89 | COc1cnc(N2CCOCC2)c2sc(NC(=O)N3CCC4(CCCO4)CC3)nc12 [Example 40, 1-Oxa-8-aza-spiro[4.5]decane-8-carboxylic acid (7-methoxy-4-morpholin-4-yl-thiazolo[5,4-c]pyridin-2-yl)-amide]
4 | 527 | 0.00724 | 3.8 | COc1cnc(N2CCOCC2)c2sc(NC(=O)c3ccc4c(c3)OCO4)nc12 [Example 9, Benzo [1,3]dioxole-5-carboxylic acid (7-methoxy-4-morpholin-4-yl-thiazolo[5,4-c]pyridin-2-yl)-amide]
5 | 593 | 0.0117 | 7.08 | COc1cnc(N2CCOCC2)c2sc(NC(=O)N3CCC(C)(CO)CC3)nc12 [Example 43, 4-Hydroxymethyl-4-methyl-piperidine-1-carboxylic acid (7-methoxy-4-morpholin-4-yl-thiazolo[5,4-c]pyridin-2-yl)-amide]
6 | 468 | 0.00676 | 3.16 | COc1cnc(N2CCOCC2)c2sc(NC(=O)N3CCC(CO)CC3)nc12 [Example 36, 4-Hydroxymethyl-piperidine-1-carboxylic acid (7-methoxy-4-morpholin-4-yl-thiazolo[5,4-c]pyridin-2-yl)-amide]
7 | 489 | 0.0129 | 6.31 | COc1cc(C(=O)Nc2nc3c(OC)cnc(N4CCOCC4)c3s2)ccn1 [Example 5, 2-Methoxy-N-(7-methoxy-4-morpholin-4-yl-thiazolo[5,4-c]pyridin-2-yl)-isonicotinamide]
8 | 384 | 0.00501 | 1.91 | COc1ccc(C(=O)Nc2nc3c(OC)cnc(N4CCOCC4)c3s2)cc1 [Example 3, 4-Methoxy-N-(7-methoxy-4-morpholin-4-yl-thiazolo[5,4-c]pyridin-2-yl)-benzamide]
9 | 572 | 0.0126 | – | COc1cnc(N2CCOCC2)c2sc(NC(=O)c3ccc(N4CCOCC4)cc3)nc12 [Example 29, N-(7-Methoxy-4-morpholin-4-yl-thiazolo[5,4-c]pyridin-2-yl)-4-morpholin-4-yl-benzamide]
10 | 1647 | 0.00389 | 6.46 | COc1cnc(N2CCOCC2)c2sc(NC(=O)c3ccnc(N4CCOCC4)c3)nc12 [Example 22, N-(7-Methoxy-4-morpholin-4-yl-thiazolo[5,4-c]pyridin-2-yl)-2-morpholin-4-yl-isonicotinamide]
11 | 512 | 0.0112 | 5.75 | COc1cnc(N2CCOCC2)c2sc(NC(=O)c3ccnc(C)c3)nc12 [Example 4, N-(7-Methoxy-4-morpholin-4-yl-thiazolo[5,4-c]pyridin-2-yl)-2-methyl-isonicotinamide]
12 | 347 | 0.0055 | 1.91 | COc1cnc(N2CCOCC2)c2sc(NC(=O)c3ccnc(N4CC(OC)C4)c3)nc12 [Example 19, 2-(3-Methoxy-azetidin-1-yl)-N-(7-methoxy-4-morpholin-4-yl-thiazolo[5,4-c]pyridin-2-yl)-isonicotinamide]
13 | 346 | 0.0209 | – | COc1cnc(N2CCOCC2)c2sc(NC(=O)N3CCC4(CCN(C)C4=O)CC3)nc12 [Example 37, 2-Methyl-1-oxo-2,8-diaza-spiro [4.5] decane-8-carboxylic acid (7-methoxy-4-morpholin-4-yl-thiazolo[5,4-c]pyridin-2-yl)-amide]
14 | 1716 | 0.00407 | 7.08 | COc1cnc(N2CCOCC2)c2sc(NC(=O)c3cccc(N4CCOCC4)c3)nc12 [Example 30, N-(7-Methoxy-4-morpholin-4-yl-thiazolo[5,4-c]pyridin-2-yl)-3-morpholin-4-yl-benzamide]
15 | 519 | 0.0141 | – | COc1ccc(C(=O)Nc2nc3c(OC)cnc(N4CCOCC4)c3s2)cn1 [Example 21, 6-Methoxy-N-(7-methoxy-4-morpholin-4-yl-thiazolo[5,4-c]pyridin-2-yl)-nicotinamide]
16 | 441 | 0.0138 | 6.03 | COCCN(C)Cc1ccc(C(=O)Nc2nc3c(OC)cnc(N4CCOCC4)c3s2)cc1 [Example 31, 4-{[(2-Methoxy-ethyl)-methyl-amino]-methyl}-N-(7-methoxy-4-morpholin-4-yl-thiazolo[5,4-c]pyridin-2-yl)-benzamide]
17 | 420 | 0.00417 | 1.78 | COc1cnc(N2CCOCC2)c2sc(NC(=O)c3ccc(F)cc3)nc12 [Example 1, 4-Fluoro-N-(7-methoxy-4-morpholin-4-yl-thiazolo[5,4-c]pyridin-2-yl)-benzamide]
18 | 446 | 0.0162 | – | COc1cnc(N2CCOCC2)c2sc(NC(=O)c3ccc(CN4CCOCC4)cc3)nc12 [Example 39, N-(7-Methoxy-4-morpholin-4-yl-thiazolo[5,4-c]pyridin-2-yl)-4-morpholin-4-ylmethyl-benzamide]
19 | 291 | 0.0251 | – | COc1cnc(N2CCOCC2)c2sc(NC(=O)c3ccnc(CN4CCOCC4)c3)nc12 [Example 33, N-(7-Methoxy-4-morpholin-4-yl-thiazolo[5,4-c]pyridin-2-yl)-2-morpholin-4-ylmethyl-isonicotinamide]
20 | 310 | 0.0162 | 5.01 | COc1cnc(N2CCOCC2)c2sc(NC(=O)CC3CCOCC3)nc12 [Example 11, N-(7-Methoxy-4-morpholin-4-yl-thiazolo[5,4-c]pyridin-2-yl)-2-(tetrahydro-pyran-4-yl)-acetamide]
21 | 258 | 0.0219 | 5.62 | COc1cnc(N2CCOCC2)c2sc(NC(=O)c3ccncc3)nc12 [Example 17, N-(7-Methoxy-4-morpholin-4-yl-thiazolo[5,4-c]pyridin-2-yl)-isonicotinamide]
22 | 535 | 0.0138 | – | COc1ccc(C(=O)Nc2nc3c(OC)cnc(N4CCOCC4)c3s2)cc1OC [Example 8, 3,4-Dimethoxy-N-(7-methoxy-4-morpholin-4-yl-thiazolo[5,4-c]pyridin-2-yl)-benzamide]
23 | 436 | 0.00309 | 1.35 | COc1cccc(C(=O)Nc2nc3c(OC)cnc(N4CCOCC4)c3s2)c1 [Example 7, 3-Methoxy-N-(7-methoxy-4-morpholin-4-yl-thiazolo[5,4-c]pyridin-2-yl)-benzamide]
